SMILES strings stand for the structures.

One test deals with Harmaline-induced tremor. Put plainly: Harmaline-induced Tremor Model. In kind it is in vivo. The note with it: Mus musculus, ip, adult male CD1 mice; test article 30 mg/kg i.p.; harmaline 30 mg/kg i.p.; read-out: Tremor Suppression Activity (magnitude of tremor suppression in percent compared to vehicle). The source says:
Harmaline-induced Tremor: Harmaline-induced tremor is widely recognized as an animal model of Essential Tremor (ET). Following acute administration, harmaline produces an 8-16 Hz tremor in rodents, cats, and monkeys that, like ET, is postural and kinetic, involving appendicular and axial musculature (Handforth, A. (2012). Harmaline tremor: underlying mechanisms in a potential animal model of essential tremor. Tremor and Other Hyperkinetic Movements (NY), 2, 02-92-769-1; Handforth, A. (2016). Linking Essential Tremor to the Cerebellum-Animal Model Evidence. Cerebellum, 15(3), 285-298; LeDoux, M. (2005). Harmaline tremor. In Movement Disorders. Elsevier Inc.; Louis, E. D. (2014). Re-thinking the biology of essential tremor: From models to morphology. Parkinsonism and Related Disorders, 20 (SUPPL.1), S88-S93). […] Clinical agents that suppress ET in patients are generally effective in the harmaline-induced tremor model (Handforth 2016). Following acute dosing of harmaline in mice, the tremor frequency (10-20 Hz) is typically recorded using an automated force plate-based system.
Procedure: Tremor activity was measured using a custom-made testing apparatus containing a piezoelectric sensing platform which was connected to an amplifier (A-M Systems model 1700). Adult male CD1 mice were brought to the experiment room for acclimatization 1 h prior to testing. Mice were first placed inside the testing apparatus for 10 min baseline habituation. After the initial habituation, mice were treated with vehicle (10 ml/kg) or test article (30 mg/kg, i.p.) and placed back in the apparatus for an additional 20 min baseline recording. Subsequently, animals were injected with harmaline (30 mg/kg, i.p.) and tremor activity was measured for 20 min. The electric signal of tremor activity was amplified at a sampling rate of 512 Hz with a multichannel amplifier and then acquired, quantized, and digitized by a data acquisition unit (CED Micro 1401). The software Spike2 (v 7.07, Cambridge Electronic Design, Cambridge, UK) was used to analyze the tremor signal by performing Fourier transformation of the data into frequency spectra. Changes in absolute power were expressed relative to each animal's 20-min baseline for the frequencies of 10-20 Hz. Comparisons between treatment and respective vehicle groups were assessed with two-tailed, Student's t-test. The level of statistical significance was defined as p<0.05 (see, e.g., Table 2.1) The magnitude of tremor suppression in percent compared to vehicle is shown in Table 2.2.
A tremor suppression score was defined as the magnitude of tremor suppression in percent compared to vehicle: ≤24% (D), 25-55% (C), 56-70% (B) and 71-100% (A). Not tested (---).
As for `C[C@@H]1COc2ccccc2[C@@H]1CS(N)(=O)=O` (stereo in doubt) [Compound 40, ((3S*,4R*)-3-methylchroman-4-yl)methanesulfonamide], the inhibition in vivo at 30 mg/kg lay within 25 to 55%. The same measure, in the same setting: the same measure for `NS(=O)(=O)CC1CC2(CC2)Oc2cc(F)ccc21` (single isomer, unassigned) [Compound 1, (S*)-(7-fluorospiro[chromane-2,1′-cyclopropan]-4-yl)methanesulfonamide]: 56 to 70%; for `CN([C@H]1CCOc2cc(F)ccc21)S(N)(=O)=O` (stereo in doubt) [Compound 69, 4(S*))-7-fluoro-4-[methyl(sulfamoyl)amino]-3,4-dihydro-2(H)-chromene]: not above 24%. Still for that read-out and setting: the same measure for `NS(=O)(=O)N[C@H]1CCOc2cc(F)ccc21` (stereo in doubt) [Compound 71, 4(S*))-7-fluoro-4-(sulfamoylamino)-3,4-dihydro-2(H)-chromene]: 56 to 70%.

For `CC1(C)COc2cc(F)ccc2C1CS(N)(=O)=O` (single isomer, unassigned) [Compound 43, (S*)-(7-fluoro-3,3-dimethylchroman-4-yl)methanesulfonamide], the inhibition in vivo at 30 mg/kg is not above 24%. On to `CC[C@H]1C[C@@H](CS(N)(=O)=O)c2ccc(F)cc2O1` (stereo in doubt) [Compound 12, ((2S*,4R*)-2-ethyl-7-fluorochroman-4-yl)methanesulfonamide], for which the inhibition in vivo at 30 mg/kg was in the range of 56 to 70%. For `CC[C@H]([C@@H]1CCOc2cc(F)ccc21)S(N)(=O)=O` (stereo in doubt) [Compound 26, (R*)-1-((R*)-7-fluorochroman-4-yl)propane-1-sulfonamide], the inhibition in vivo at 30 mg/kg fell in the range of 71 to 100%. Regarding `N#Cc1ccc2c(c1)OCCC2CS(N)(=O)=O` (single isomer, unassigned) [Compound 59, (S*)-(7-cyanochroman-4-yl)methanesulfonamide], the inhibition in vivo at 30 mg/kg was not above 24%.

In the case of `C[C@H]1COc2cc(F)c(F)cc2[C@H]1CS(N)(=O)=O` (stereo in doubt) [Compound 7, ((3R*,4S*)-6,7-difluoro-3-methylchroman-4-yl)methanesulfonamide], the inhibition in vivo at 30 mg/kg lay in the range of 25 to 55%.

As for `NS(=O)(=O)N[C@@H]1CCOc2cc(F)ccc21` (stereo in doubt) [Compound 72, 4(R*))-7-fluoro-4-(sulfamoylamino)-3,4-dihydro-2(H)-chromene], the inhibition in vivo at 30 mg/kg lay in the range of 25 to 55%. The same measure, in the same setting: the same measure for `C[C@H]1COc2ccc(F)cc2[C@H]1CS(N)(=O)=O` (relative stereo) [Compound 53, ((3R*,4S*)-6-fluoro-3-methylchroman-4-yl)methanesulfonamide]: 25 to 55%; for `NS(=O)(=O)C1(C2CCOc3cc(F)ccc32)CC1` (single isomer, unassigned) [Compound 27, (S*)-1-(7-fluorochroman-4-yl)cyclopropane-1-sulfonamide]: not above 24%.

Turning to `NS(=O)(=O)CC1CCOc2cc(F)cc(F)c21` (single isomer, unassigned) [Compound 17, (S*)-(5,7-difluorochroman-4-yl)methanesulfonamide], the inhibition in vivo at 30 mg/kg fell in the range of 56 to 70%.

With `CC1(C)CC(CS(N)(=O)=O)c2ccc(F)cc2O1` (single isomer, unassigned) [Compound 45, (R*)-(7-fluoro-2,2-dimethylchroman-4-yl)methanesulfonamide], the inhibition in vivo at 30 mg/kg fell in the range of 71 to 100%. On the same count and under the same terms, the figure for `CC[C@@H]1C[C@H](CS(N)(=O)=O)c2ccc(F)cc2O1` (stereo in doubt) [Compound 11, ((2R*,4S*)-2-ethyl-7-fluorochroman-4-yl)methanesulfonamide] is 71 to 100%; for `C[C@H]1C[C@@H](CS(N)(=O)=O)c2ccccc2O1` (stereo in doubt) [Compound 34, ((2S*,4R*)-2-methylchroman-4-yl)methanesulfonamide] it is 56 to 70%; for `CC[C@@H]1COc2cc(F)ccc2[C@@H]1CS(N)(=O)=O` (stereo in doubt) [Compound 20, ((3S*,4R*)-3-ethyl-7-fluorochroman-4-yl)methanesulfonamide] it is 71 to 100%.

`C[C@H]1COc2ccccc2[C@H]1CS(N)(=O)=O` (stereo in doubt) [Compound 39, ((3R*,4S*)-3-methylchroman-4-yl)methanesulfonamide]: the inhibition in vivo at 30 mg/kg lay in the range of 25 to 55%.

`C[C@@H]1COc2cc(F)c(F)cc2[C@@H]1CS(N)(=O)=O` (stereo in doubt) [Compound 8, ((3S*,4R*)-6,7-difluoro-3-methylchroman-4-yl)methanesulfonamide]: the inhibition in vivo at 30 mg/kg lay in the range of 25 to 55%. The same measure, in the same setting: the same measure for `C[C@H]1COc2cc(F)ccc2[C@H]1NS(N)(=O)=O` (stereo in doubt) [Compound 74, (3(R*),4(S*))-7-fluoro-3-methyl-4-(sulfamoylamino)-3,4-dihydro-2(H)-chromene]: 56 to 70%. With `Cc1ccc2c(c1)OCCC2CS(N)(=O)=O` (single isomer, unassigned) [Compound 57, (S*)-(7-methylchroman-4-yl)methanesulfonamide], the inhibition in vivo at 30 mg/kg is not above 24%. Same read-out and setting: the figure for `C[C@@H]1COc2cc(F)ccc2[C@H]1NS(N)(=O)=O` (relative stereo) [Compound 76, (3(S*),4(S*))-7-fluoro-3-methyl-4-(sulfamoylamino)-3,4-dihydro-2(H)-chromene] is 56 to 70%; for `CC[C@H]1COc2cc(F)ccc2[C@H]1CS(N)(=O)=O` (stereo in doubt) [Compound 19, ((3R*,4S*)-3-ethyl-7-fluorochroman-4-yl)methanesulfonamide] it is not above 24%.

Staying with this test, now noted: adult male CD1 mice; test article 30 mg/kg i.p.; harmaline 30 mg/kg i.p.
`NS(=O)(=O)CC1CC2(CCC2)Oc2cc(F)ccc21` (single isomer, unassigned) [Compound 4, (R*)-(7-fluorospiro[chromane-2,1′-cyclobutan]-4-yl)methane-sulfonamide]: the “Tremor Suppression Activity (magnitude of tremor suppression in percent compared to vehicle)” value was “B (56-70% (B))”. The same measure, in the same setting: the same measure for `NS(=O)(=O)CC1CCOc2cc(C(F)(F)F)ccc21` (single isomer, unassigned) [Compound 38, (R*)-(7-(trifluoromethyl)chroman-4-yl)methanesulfonamide]: “A (71-100% (A))”; for `NS(=O)(=O)CC1CCOc2c1ccc(F)c2F` (single isomer, unassigned) [Compound 15, (S*)-(7,8-difluorochroman-4-yl)methanesulfonamide]: “C (25-55% (C))”.

As for `NS(=O)(=O)CC1CCOc2c1ccc(F)c2F` (single isomer, unassigned) [Compound 16, (R*)-(7,8-difluorochroman-4-yl)methanesulfonamide], the “Tremor Suppression Activity (magnitude of tremor suppression in percent compared to vehicle)” value is “B (56-70% (B))”. The same measure, in the same setting: the entry for `N#Cc1ccc2c(c1)OCCC2CS(N)(=O)=O` (single isomer, unassigned) [Compound 60, (R*)-(7-cyanochroman-4-yl)methanesulfonamide] is “C (25-55% (C))”; for `CC1(C)CC(CS(N)(=O)=O)c2ccc(F)cc2O1` (single isomer, unassigned) [Compound 46, (S*)-(7-fluoro-2,2-dimethylchroman-4-yl)methanesulfonamide] it is “A (71-100% (A))”. With `CC1(C)CC(CS(N)(=O)=O)c2cc(F)c(F)cc2O1` (single isomer, unassigned) [Compound 5, (S*)-(6,7-difluoro-2,2-dimethylchroman-4-yl)methanesulfonamide], the “Tremor Suppression Activity (magnitude of tremor suppression in percent compared to vehicle)” value was “C (25-55% (C))”. Same read-out and setting: the same measure for `NS(=O)(=O)CC1CCOc2cc(F)c(F)cc21` (single isomer, unassigned) [Compound 30, (R*)-(6,7-difluorochroman-4-yl)methanesulfonamide]: “A (71-100% (A))”.

Still in this test, the particulars now being: adult male CD1 mice; test article 30 mg/kg i.p.; harmaline 30 mg/kg i.p.; 10-20 Hz power over 20 min relative to 20-min baseline.
As for `CC[C@H]1C[C@@H](CS(N)(=O)=O)c2ccc(F)cc2O1` (stereo in doubt) [Compound 12, ((2S*,4R*)-2-ethyl-7-fluorochroman-4-yl)methanesulfonamide], the “Tremor power relative to baseline (mean ± s.e.m.)” value (“Tremor power relative to baseline” below) is on record as 196 ± 59. `CC1(C)CC(CS(N)(=O)=O)c2ccc(F)cc2O1` (single isomer, unassigned) [Compound 45, (R*)-(7-fluoro-2,2-dimethylchroman-4-yl)methanesulfonamide]: the “Tremor power relative to baseline” value stood at 144 ± 35. The same measure, in the same setting: the figure for `CC[C@@H]1C[C@H](CS(N)(=O)=O)c2ccc(F)cc2O1` (stereo in doubt) [Compound 11, ((2R*,4S*)-2-ethyl-7-fluorochroman-4-yl)methanesulfonamide] is 134 ± 32.

Consider `CC1(C)CC(CS(N)(=O)=O)c2ccc(F)cc2O1` (single isomer, unassigned) [Compound 46, (S*)-(7-fluoro-2,2-dimethylchroman-4-yl)methanesulfonamide], for which the “Tremor power relative to baseline” value was found to be 145 ± 27.
